The results in this text go back to patent publication US12544417B2, “Oral film and stick jelly for improving absorption in the oral mucosa, antioxidant activity, anti-inflammatory activity, and liver function of humans and companion animals” (ESTHER FORMULA CO., LTD., priority 2022, dated 2026).

The nature of the experiment: DPPH-free radical scavenging. In kind it is biochemical. Particulars: ascorbic acid 100 μg/mL, positive control group. As for the experimental part: 1% of the oral disintegrating film (Example 1-1), the oral mucosal adhesive film (Example 3-1), and the stick jelly (Example 4-1) were homogeneously dissolved, and centrifuged at 10,000 rpm and at 4° C. for 5 minutes to prepare a CFE (cell-free extract). 3.0 mL of a […] (DPPH) solution (5 mg/100 mL ethanol) was mixed with 500 μL of the prepared CFE, and the same amount of ethanol, MRS solution, and ascorbic acid (100 μg/mL) were used as a control group, a blank, and a comparative group, respectively. Then, the result was mixed with the DPPH solution and incubated in a dark room for 30 minutes, absorbance at 517 nm was measured, and the antioxidant activity was converted into % using Equation 1 below. [formula]
A general note: DPPH is a stable violet radical that fades when it is reduced.

In the case of `O=C1O[C@H]([C@@H](O)CO)C(O)=C1O` [ascorbic acid], the “DPPH-free radical scavenging (%)” value stood at 90%.
